Assay results reported in patent publication US20240150340A1, “CDK Inhibitors And Their Use As Pharmaceuticals” (Prelude Therapeutics Incorporated, priority 2022, published 2024).

Tests used:
CDK2/Cyclin E2 = biological target: T1, CDK2/Cyclin E2 (Homo sapiens, UniProt P24941); test: CDK2/CyclinE2 Enzymatic Activity Assay (TR-FRET); assay type: biochemical; details: ATP 1 mM final, read-out: CDK2_E1 IC50
T1 construct: Recombinant protein complex CDK2/Cyclin E2, expressed from insect cell, was purchased from ProQinase
Method: CDK2/CyclinE2 Enzymatic Activity Assay
The inhibitory activity of compounds was evaluated in vitro using TR-FRET assay with white 384-well low volume microplate (Greiner Bio-One). CDK2/Cyclin E2 catalyzed phosphorylation of peptide in the presence and absence of compounds was measured and used in IC50 determination. Recombinant protein complex CDK2/Cyclin E2, expressed from insect cell, was purchased from ProQinase. Testing compounds were dissolved in DMSO at 1 mM and tested in 9-dose IC50 mode. The reaction mixture was prepared by mixing CDK2/CyclinE2 (1 nM final), ULight-4E-BP1 (50 nM final, Perkinelmer, TRF0128-D), and ATP (1 mM final) in assay buffer (20 mM of HEPES pH 7.4, 1 mM of EGTA, 0.05% BSA, 0.005% Tween 20, and 1 mM TCEP). The compound of interest in DMSO was added to each well in 3-fold serial dilution by dispenser (TECAN D300E) to make a 9.9 μL of reaction mixture. After 20 minutes preincubation at room temperature, 0.1 μL MgCl2 (10 mM final) was added to initiate the reaction. Following a 45 minute incubation at 37° C., the reaction was stopped by addition of 2 μL of quenching buffer consisting of Lance detection buffer (Perkinelmer CR97-100C), LANCE Ultra Europium-anti-P-4E-BP1 (Perkinelmer, TRF0216-D), EDTA, and incubated at room temperature for additional 60 minutes in the dark. The reaction signal was measured by Envision multimode plate reader (PerkinElmer, 2102-0010). IC50 values were determined by fitting the data to the standard 4 parameters with Hill Slope using GraphPad Prism software.

OVCAR3 p-RB = test: pRB ICW Assay in OVCAR3 Cells; assay type: cell-based; details: Homo sapiens, OVCAR-3, incubated with compound for 2 hours
Method: pRB ICW Assay in OVCAR3 Cells
OVCAR3 cells were maintained in RPMI (Corning, Catalog #: 10-040-CV) supplemented with 10% v/v FBS (Gibco, Catalog #: 26140-079), 1% v/v Penicillin Streptomycin (Gibco, Catalog #15140-122.) OVCAR3 cells grown at log phase were trypsinized, counted, and resuspended in fresh medium to reach a final density of 6.7e4 cells/mL and 75 μL of culture were dispensed into a 384-well plate (Falcon, cat #353962) using a Multidrop Combi dispenser (Thermo Scientific). The next day, compounds were dispensed as a 9-point, ½ log serial dilution using a Tecan digital dispenser (D300e), and cells were incubated with compound for 2 hours in a humidified incubator at 37° C. A reference compound at a final concentration of 10 μM was used as a control for maximum inhibition. Each compound was tested in duplicate for each experiment. At the end of the incubation, […] (Electron Microscopy, cat #15710) was slowly added to each well and the plate was incubated at room temperature (RT) for 30 minutes to fix cells. Cells were then permeabilized by incubating with 50 μL/well of wash buffer (1×PBS with 0.1% Triton X-100) 5×5 minutes, followed by 1 hour blocking with 30 μL/well of Odyssey blocking buffer (Li-COR, cat #927-40000), at RT. Anti-phosphor RB antibody (Cell signaling 8516S) was diluted 1:1000 in Odyssey blocking buffer and 20 μL was added to all wells and incubated overnight in 4° C. with gently rocking. The next day, cells were washed 5×5 min with 50 μL/well of wash buffer, followed with 1 hour incubation with secondary antibody and DRAQ5 diluted in Odyssey blocking buffer (1:500 dilution for secondary antibody and 1:2000 dilution for DRAQ5), 5×5 min washes, and one last wash with water. Plates were dried in 37° C. oven for 5 minutes and scanned using Li-COR Odyssey CLx imaging system to acquire intensities at 700 and 800 nm channels.

IC50 (CDK2/Cyclin E2)	IC50 (OVCAR3 p-RB)	SMILES
≤ 100 nM	≤ 100 nM	C[C@@H]1CN(S(=O)(=O)c2c[nH]cn2)CC[C@@H]1Nc1ncc(C(F)(F)F)c(-c2cc(C#N)c(C(C)(C)O)s2)n1 [Example 120, 5-(2-(((3R,4S)-1-((1H-imidazol-4-yl)sulfonyl)-3-methylpiperidin-4-yl)amino)-5-(trifluoromethyl)pyrimidin-4-yl)-2-(2-hydroxypropan-2-yl)thiophene-3-carbonitrile]
≤ 100 nM	100 to 500 nM	C[C@@H]1CN(S(=O)(=O)c2cn(C)cn2)CC[C@@H]1Nc1ncc(C(F)(F)F)c(-c2cc(C#N)c(C(C)(C)O)s2)n1 [Example 121, 2-(2-hydroxypropan-2-yl)-5-(2-(((3R,4S)-3-methyl-1-((1-methyl-1H-imidazol-4-yl)sulfonyl)piperidin-4-yl)amino)-5-(trifluoromethyl)pyrimidin-4-yl)thiophene-3-carbonitrile]
≤ 100 nM	≤ 100 nM	CS(=O)(=O)N1CCC(Nc2ncc(C(F)(F)F)c(-c3cc(C#N)c(C(O)C(F)(F)F)s3)n2)CC1 (stereo not drawn) [Example 122, 5-(2-((1-(methylsulfonyl)piperidin-4-yl)amino)-5-(trifluoromethyl)pyrimidin-4-yl)-2-(2,2,2-trifluoro-1-hydroxyethyl)thiophene-3-carbonitrile]
≤ 100 nM	≤ 100 nM	C[C@@H]1CN(S(=O)(=O)c2cnn(C)c2)CC[C@@H]1Nc1ncc(C(F)(F)F)c(-c2cc(C#N)c(C(O)C(F)(F)F)s2)n1 (stereo partly drawn) [Example 123, 5-(2-(((3R,4S)-3-methyl-1-((1-methyl-1H-pyrazol-4-yl)sulfonyl)piperidin-4-yl)amino)-5-(trifluoromethyl)pyrimidin-4-yl)-2-(2,2,2-trifluoro-1-hydroxyethyl)thiophene-3-carbonitrile]
≤ 100 nM	≤ 100 nM	CC(C)(O)Cc1sc(-c2nc(NC3CCN(S(C)(=O)=O)CC3)ncc2C(F)(F)F)cc1C#N [Example 124, 2-(2-hydroxy-2-methylpropyl)-5-(2-((1-(methylsulfonyl)piperidin-4-yl)amino)-5-(trifluoromethyl)pyrimidin-4-yl)thiophene-3-carbonitrile]
≤ 100 nM	100 to 500 nM	Cn1cc(S(=O)(=O)N2CCC(Nc3ncc(C(F)(F)F)c(-c4cc(C#N)c(CC(C)(C)O)s4)n3)CC2)cn1 [Example 125, 2-(2-hydroxy-2-methylpropyl)-5-(2-((1-((1-methyl-1H-pyrazol-4-yl)sulfonyl)piperidin-4-yl)amino)-5-(trifluoromethyl)pyrimidin-4-yl)thiophene-3-carbonitrile]
≤ 100 nM	≤ 100 nM	Cn1cc(S(=O)(=O)N2CC[C@@H](Nc3ncc(C(F)(F)F)c(-c4cc(C#N)c(CC(C)(C)O)s4)n3)[C@H](F)C2)cn1 [Example 126, 5-(2-(((3R,4R)-3-fluoro-1-((1-methyl-1H-pyrazol-4-yl)sulfonyl)piperidin-4-yl)amino)-5-(trifluoromethyl)pyrimidin-4-yl)-2-(2-hydroxy-2-methylpropyl)thiophene-3-carbonitrile]
≤ 100 nM	≤ 100 nM	Cn1cnc(S(=O)(=O)N2CC[C@@H](Nc3ncc(C(F)(F)F)c(-c4cc(C#N)c(CC(C)(C)O)s4)n3)[C@H](F)C2)c1 [Example 127, 5-(2-(((3R,4R)-3-fluoro-1-((1-methyl-1H-imidazol-4-yl)sulfonyl)piperidin-4-yl)amino)-5-(trifluoromethyl)pyrimidin-4-yl)-2-(2-hydroxy-2-methylpropyl)thiophene-3-carbonitrile]
≤ 100 nM	≤ 100 nM	Cn1cc(S(=O)(=O)N2CC[C@@H](Nc3ncc(C(F)(F)F)c(-c4cc(C(N)=O)ns4)n3)[C@H](F)C2)cn1 [Example 128, 5-(2-(((3R,4R)-3-fluoro-1-((1-methyl-1H-pyrazol-4-yl)sulfonyl)piperidin-4-yl)amino)-5-(trifluoromethyl)pyrimidin-4-yl)isothiazole-3-carboxamide]
≤ 100 nM	≤ 100 nM	Cn1cc(S(=O)(=O)N2CC[C@H](Nc3ncc(C(F)(F)F)c(-c4cc(C(N)=O)ns4)n3)[C@H](F)C2)cn1 [Example 129, 5-(2-(((3R,4S)-3-fluoro-1-((1-methyl-1H-pyrazol-4-yl)sulfonyl)piperidin-4-yl)amino)-5-(trifluoromethyl)pyrimidin-4-yl)isothiazole-3-carboxamide]
≤ 100 nM	100 to 500 nM	CC(C)(O)Cc1sc(-c2nc(NC3CCN(S(C)(=O)=O)CC3)ncc2C(F)(F)F)cc1C(N)=O [Example 130, 2-(2-hydroxy-2-methylpropyl)-5-(2-((1-(methylsulfonyl)piperidin-4-yl)amino)-5-(trifluoromethyl)pyrimidin-4-yl)thiophene-3-carboxamide]
≤ 100 nM	≤ 100 nM	C[C@@H]1CN(S(=O)(=O)c2cn(C)cn2)CC[C@@H]1Nc1ncc(C(F)(F)F)c(-c2ncc(C(C)(C)O)s2)n1 [Example 133, 2-(2-(2-(((3R,4S)-3-methyl-1-((1-methyl-1H-imidazol-4-yl)sulfonyl)piperidin-4-yl)amino)-5-(trifluoromethyl)pyrimidin-4-yl)thiazol-5-yl)propan-2-ol]
≤ 100 nM	≤ 100 nM	CS(=O)(=O)N1CCC(Nc2ncc(C(F)(F)F)c(-c3ncc(C(O)C(F)F)s3)n2)CC1 (stereo not drawn) [Example 134, 2,2-difluoro-1-(2-(2-((1-(methylsulfonyl)piperidin-4-yl)amino)-5-(trifluoromethyl)pyrimidin-4-yl)thiazol-5-yl)ethan-1-ol]
≤ 100 nM	100 to 500 nM	CC(C)(O)Cc1cnc(-c2nc(N[C@@H]3CCN(S(C)(=O)=O)C[C@H]3F)ncc2C(F)(F)F)s1 [Example 135, 1-(2-(2-(((3R,4R)-3-fluoro-1-(methylsulfonyl)piperidin-4-yl)amino)-5-(trifluoromethyl)pyrimidin-4-yl)thiazol-5-yl)-2-methylpropan-2-ol]
≤ 100 nM	≤ 100 nM	Cn1cnc(S(=O)(=O)N2CC[C@H](Nc3ncc(C(F)(F)F)c(-c4ncc(CC(C)(C)O)s4)n3)[C@H](F)C2)c1 [Example 136, 1-(2-(2-(((3R,4S)-3-fluoro-1-((1-methyl-1H-imidazol-4-yl)sulfonyl)piperidin-4-yl)amino)-5-(trifluoromethyl)pyrimidin-4-yl)thiazol-5-yl)-2-methylpropan-2-ol]
≤ 100 nM	≤ 100 nM	CC(C)(O)Cc1cnc(-c2nc(N[C@H]3CCN(S(=O)(=O)c4cn[nH]c4)C[C@H]3F)ncc2C(F)(F)F)s1 [Example 137, 1-(2-(2-(((3R,4S)-1-((1H-pyrazol-4-yl)sulfonyl)-3-fluoropiperidin-4-yl)amino)-5-(trifluoromethyl)pyrimidin-4-yl)thiazol-5-yl)-2-methylpropan-2-ol]
≤ 100 nM	≤ 100 nM	C[C@@H]1CN(S(=O)(=O)c2cnn(C)c2)CC[C@@H]1Nc1ncc(C(F)(F)F)c(-c2ncc(C(O)C(F)F)s2)n1 (stereo partly drawn) [Example 138, 2,2-difluoro-1-(2-(2-(((3R,4S)-3-methyl-1-((1-methyl-1H-pyrazol-4-yl)sulfonyl)piperidin-4-yl)amino)-5-(trifluoromethyl)pyrimidin-4-yl)thiazol-5-yl)ethan-1-ol]
≤ 100 nM	≤ 100 nM	C[C@@H]1CN(S(=O)(=O)c2cn(C)cn2)CC[C@@H]1Nc1ncc(C(F)(F)F)c(-c2ncc(C(O)C(F)F)s2)n1 (stereo partly drawn) [Example 139, 2,2-difluoro-1-(2-(2-(((3R,4S)-3-methyl-1-((1-methyl-1H-imidazol-4-yl)sulfonyl)piperidin-4-yl)amino)-5-(trifluoromethyl)pyrimidin-4-yl)thiazol-5-yl)ethan-1-ol]
